Among the test systems are K-562 leukemia; SF-268 CNS; SK-MEL-5 melanoma; CCRF-CEM leukemia; U251 CNS; ACHN renal; KM20L2 colon; SNB-75 CNS; SW-620 colon; MDA-N.
Experiment in all cases: inhibition of tumour cell growth, NCI panel, 48 h

Values joined by “and” are separate entries in the source; they are usually repeats but may differ in a detail not shown here. Equal values may be shown once.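 Tested at 5 concentrations; 48 h exposure; 96-well plates; endpoints linearly interpolated, else capped at highest concentration. Abbreviation: GI50, concentration required for 50% inhibition of growth. TGI marks complete inhibition of growth.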

`CSc1cc(C(C)(C)C)ccc1C(O)c1ccc(C(C)(C)C)cc1SC`: the TGI with K-562 leukemia worked out at 30.5 µM; with SF-268 CNS, 27.1 µM; with SK-MEL-5 melanoma, 27.5 µM; in the experiment with CCRF-CEM leukemia, 35.8 µM; in the experiment on U251 CNS it was 27.1 µM; with ACHN renal, 23.6 µM. In addition, the TGI in the experiment with KM20L2 colon turned out to be 23.8 µM; in the experiment on SNB-75 CNS it was 32.3 µM; with SW-620 colon, 23.9 µM.

As for `c1ccc(/C(=N\Nc2nc3ccccc3s2)c2ccccn2)cc1`, the TGI in the experiment on K-562 leukemia is over 44.1 µM; in the experiment with SF-268 CNS, over 50.4 µM; in the experiment with SK-MEL-5 melanoma, 7.91 µM; in the experiment with CCRF-CEM leukemia it was 1.07 µM; in the experiment on U251 CNS it was over 40.9 µM; with MDA-N, over 100 µM. Also, the TGI with ACHN renal was over 28.8 µM; with SNB-75 CNS, over 100 µM; in the experiment on SW-620 colon, over 100 µM.

With `O=C(Nc1cc2cc([N+](=O)[O-])ccc2oc1=O)c1cccs1`, the TGI in the experiment with K-562 leukemia is over 100 µM; in the experiment on SF-268 CNS, over 100 µM; with SK-MEL-5 melanoma, 45 µM; in the experiment with CCRF-CEM leukemia, 78.3 µM; in the experiment on U251 CNS it was over 100 µM; in the experiment on MDA-N, over 100 µM. For the same molecule, the TGI in the experiment with ACHN renal was over 100 µM; in the experiment on SNB-75 CNS, 16.5 µM; in the experiment with SW-620 colon, over 100 µM.

For `N#CC(C#N)=C1CCC2C(=C(C#N)C#N)CCC12` (configuration not stated), the TGI in the experiment on K-562 leukemia, in the experiment with SF-268 CNS, in the experiment with SK-MEL-5 melanoma, in the experiment with CCRF-CEM leukemia, in the experiment with U251 CNS and with KM20L2 colon was over 100 µM in each case. Also, the TGI with SNB-75 CNS and in the experiment on SW-620 colon was over 100 µM throughout.

On to `C/C(=N\NC(=S)N1CCN(c2ccccn2)CC1)c1cccc2cccnc12`, for which the TGI in the experiment with K-562 leukemia was over 100 µM; with SF-268 CNS, over 100 µM; with SK-MEL-5 melanoma, over 43.2 µM; in the experiment with CCRF-CEM leukemia, over 42.8 µM; with U251 CNS, over 29.7 µM; with MDA-N, over 100 µM. Besides, the TGI in the experiment with ACHN renal is over 100 µM; in the experiment on SNB-75 CNS, over 70.2 µM; in the experiment on SW-620 colon it was over 100 µM.

Consider `COc1cc(/C=C/c2ccnc3ccccc23)cc(OC)c1OC`, for which the GI50 in the experiment with K-562 leukemia was 0.746 µM; in the experiment with CCRF-CEM leukemia, 3.64 µM; with U251 CNS, 3.01 µM; in the experiment with ACHN renal it was 4.89 µM; with SNB-75 CNS, 1.7 µM; in the experiment with SW-620 colon, 0.906 µM. Moreover, the TGI in the experiment on K-562 leukemia was over 100 µM; in the experiment with SF-268 CNS it was 19.8 µM and 47.6 µM; in the experiment on SK-MEL-5 melanoma, 10.5 µM and 11.5 µM; with U251 CNS it was 44.1 µM and 22.8 µM; in the experiment on MDA-N it was 1.74 µM; in the experiment on ACHN renal, 92 µM and > 100 µM. Moreover, the TGI with SNB-75 CNS is 5.4 µM; with SW-620 colon it was > 100 µM and 20 µM.

On to `CC(=O)[CH-]C(=O)c1ccccc1.CC(=O)[CH-]C(=O)c1ccccc1.CC(=O)[CH-]C(=O)c1ccccc1.[Br-].[Zr+4]`, for which the GI50 is over 100 µM in the experiment with K-562 leukemia; 56.7 µM in the experiment with SF-268 CNS; over 100 µM with SK-MEL-5 melanoma; 22.3 µM in the experiment on CCRF-CEM leukemia; 67.7 µM with U251 CNS; 54.3 µM in the experiment with ACHN renal. Also, the figures for the GI50 with KM20L2 colon, in the experiment on SNB-75 CNS and in the experiment with SW-620 colon were 51.6 µM, 34 µM and over 100 µM, respectively. Further, the TGI in the experiment on K-562 leukemia, in the experiment on SF-268 CNS, in the experiment on SK-MEL-5 melanoma, with CCRF-CEM leukemia, with U251 CNS and in the experiment on ACHN renal was over 100 µM throughout. Further, the TGI in the experiment with KM20L2 colon, with SNB-75 CNS and with SW-620 colon was over 100 µM in each case.

For the molecule `FC(F)(F)c1nc(Br)[nH]c1C(F)(F)F`, the TGI in the experiment on K-562 leukemia, with SF-268 CNS, with SK-MEL-5 melanoma, in the experiment on CCRF-CEM leukemia, with U251 CNS and in the experiment with ACHN renal was over 100 µM throughout. Further, the TGI in the experiment with KM20L2 colon, in the experiment on SNB-75 CNS and with SW-620 colon was over 100 µM each time.

For `C=C1C(C(=O)O)C1C(=O)O` (configuration not stated), the TGI in the experiment with K-562 leukemia, with SF-268 CNS, in the experiment on SK-MEL-5 melanoma, with CCRF-CEM leukemia, in the experiment on U251 CNS and in the experiment on ACHN renal was over 100 µM each time. Moreover, the TGI in the experiment on KM20L2 colon, with SNB-75 CNS and with SW-620 colon was over 100 µM each time.

Regarding `Cc1cn(C2CC(O)C(COC(N)=O)O2)c(=O)[nH]c1=O` (configuration not stated), the TGI in the experiment with K-562 leukemia, in the experiment on SF-268 CNS, with SK-MEL-5 melanoma, in the experiment with CCRF-CEM leukemia, in the experiment with U251 CNS and in the experiment on MDA-N was over 100 µM each time. For the same molecule, the TGI in the experiment with ACHN renal, with SNB-75 CNS and in the experiment on SW-620 colon was over 100 µM throughout.

For the molecule `NS(=O)(=O)c1cc(C(=O)O)c(Cl)c([N+](=O)[O-])c1Cl`, the TGI with K-562 leukemia, in the experiment with SF-268 CNS, in the experiment with SK-MEL-5 melanoma, with CCRF-CEM leukemia, in the experiment with U251 CNS and with MDA-N was over 100 µM each time. Moreover, the TGI with ACHN renal, in the experiment with SNB-75 CNS and with SW-620 colon was over 100 µM each time.

As for `c1ccc2c(c1)[nH]c1c3ccccc3sc21`, the TGI with K-562 leukemia, with SF-268 CNS, with SK-MEL-5 melanoma, with CCRF-CEM leukemia, in the experiment with U251 CNS and in the experiment on MDA-N was over 100 µM throughout. The TGI in the experiment with ACHN renal, with SNB-75 CNS and in the experiment on SW-620 colon was over 100 µM each time.

In the case of `CC(=N/NC(N)=S)/C(C)=N/NC(N)=S`, the TGI in the experiment on K-562 leukemia, in the experiment with SF-268 CNS, in the experiment with SK-MEL-5 melanoma, with CCRF-CEM leukemia, with MDA-N and with ACHN renal was over 100 µM in each case. The TGI in the experiment with SNB-75 CNS and in the experiment with SW-620 colon was over 100 µM in each case.

As to `O=c1[nH]c(=O)n(C2OC(CO)C(O)C2O)cc1F` (configuration not stated), the GI50 was 0.018 µM with K-562 leukemia; 0.0491 µM in the experiment on SF-268 CNS; 0.0369 µM in the experiment with CCRF-CEM leukemia; 0.0669 µM with U251 CNS; 0.0236 µM in the experiment with ACHN renal; 0.0314 µM in the experiment on SW-620 colon. Also, the TGI in the experiment on K-562 leukemia was over 100 µM; with SF-268 CNS, over 100 µM; in the experiment on SK-MEL-5 melanoma, 38.4 µM; with CCRF-CEM leukemia, over 100 µM; in the experiment with U251 CNS, over 48.7 µM; with MDA-N, over 70.5 µM. Also, the TGI was 21 µM with ACHN renal, over 100 µM in the experiment with KM20L2 colon, over 100 µM in the experiment with SNB-75 CNS and over 100 µM with SW-620 colon.

Turning to `CCSCCCC(=O)O`, the TGI in the experiment on K-562 leukemia, in the experiment with SF-268 CNS, in the experiment on SK-MEL-5 melanoma, with CCRF-CEM leukemia, with U251 CNS and with MDA-N was over 100 µM throughout. The TGI in the experiment with ACHN renal, in the experiment with SNB-75 CNS and with SW-620 colon was over 100 µM throughout.

In the case of `CC[P+]1(c2ccccc2)CCCCC1`, the TGI in the experiment on K-562 leukemia, with SF-268 CNS, with SK-MEL-5 melanoma, in the experiment with CCRF-CEM leukemia, in the experiment on U251 CNS and in the experiment on ACHN renal was over 100 µM throughout. Further, the TGI with KM20L2 colon, in the experiment with SNB-75 CNS and in the experiment on SW-620 colon was over 100 µM in each case.

Take `O=C(O)c1[nH]c2c([N+](=O)[O-])cc([N+](=O)[O-])cc2c1C(=O)O`: the TGI in the experiment on K-562 leukemia is over 100 µM; with SF-268 CNS, over 100 µM; in the experiment with SK-MEL-5 melanoma, over 100 µM; in the experiment on CCRF-CEM leukemia it was over 100 µM; in the experiment on U251 CNS, over 100 µM; with MDA-N, 92.9 µM. The TGI in the experiment with ACHN renal, in the experiment on SNB-75 CNS and with SW-620 colon was over 100 µM in each case.

For `O=C(OCc1ccccc1)n1cccc1`, the TGI in the experiment with K-562 leukemia, in the experiment with SF-268 CNS, in the experiment on SK-MEL-5 melanoma, in the experiment on CCRF-CEM leukemia, in the experiment with U251 CNS and in the experiment with ACHN renal was over 100 µM in each case. For the same molecule, the TGI with KM20L2 colon, in the experiment on SNB-75 CNS and in the experiment on SW-620 colon was over 100 µM throughout.

With `NC(=O)c1ncn2c(=O)n(CCCl)nnc12`, the TGI in the experiment on K-562 leukemia is 642 µM; in the experiment with SF-268 CNS it was > 45 µM and 709 µM; with SK-MEL-5 melanoma, 324 µM; in the experiment with CCRF-CEM leukemia, 440 µM; in the experiment with U251 CNS, 447 µM; in the experiment on MDA-N, 338 µM. The TGI is 385 µM in the experiment on ACHN renal, 319 µM with KM20L2 colon, 205 µM in the experiment on SNB-75 CNS and 822 µM with SW-620 colon. For the same molecule, the GI50 in the experiment on SF-268 CNS was 10.7 µM; in the experiment on CCRF-CEM leukemia, over 62.9 µM; in the experiment on U251 CNS, 99.2 µM; in the experiment on ACHN renal, over 71.2 µM; with SNB-75 CNS, 23.7 µM; in the experiment on SW-620 colon, 51.2 µM.

As to `Oc1ccc(/C=N/NC(=S)Nc2cccnc2)nc1`, the TGI is over 23.1 µM in the experiment on K-562 leukemia; over 100 µM with SF-268 CNS; over 100 µM with SK-MEL-5 melanoma; 9.78 µM with CCRF-CEM leukemia; over 67 µM in the experiment on U251 CNS; over 100 µM in the experiment on MDA-N. Further, the TGI with ACHN renal was 32.3 µM; in the experiment with SNB-75 CNS it was 97 µM; in the experiment with SW-620 colon it was over 100 µM.

With `CCC(C)C(=O)OC1CCC=C2C=CC(C)C(CCC3CC(O)CC(=O)O3)C21` (configuration not stated), the TGI in the experiment on K-562 leukemia, with SF-268 CNS, in the experiment on SK-MEL-5 melanoma, with CCRF-CEM leukemia, in the experiment on U251 CNS and in the experiment with MDA-N was over 100 µM throughout. The TGI in the experiment on ACHN renal was over 88 µM; with SNB-75 CNS it was over 75.9 µM; in the experiment with SW-620 colon it was over 100 µM.

Take `O=C(O)c1cc(Cl)cc(Cc2cc(Cl)cc(C(=O)O)c2O)c1O`: the TGI in the experiment with K-562 leukemia, in the experiment on SF-268 CNS, with SK-MEL-5 melanoma, with CCRF-CEM leukemia, with U251 CNS and in the experiment on MDA-N was over 100 µM in each case. In addition, the TGI with ACHN renal, in the experiment on SNB-75 CNS and in the experiment on SW-620 colon was over 100 µM in each case.

In the case of `O=C1CCc2ccc(O)c(c2)Oc2ccc(cc2)[C@@H]2O[C@@H]2CO1`, the TGI with K-562 leukemia is over 100 µM; with SK-MEL-5 melanoma it was 58.2 µM; with CCRF-CEM leukemia, over 100 µM; with U251 CNS it was over 100 µM; in the experiment on ACHN renal, over 100 µM; in the experiment on KM20L2 colon, over 100 µM. In addition, the TGI in the experiment with SNB-75 CNS and in the experiment on SW-620 colon was over 100 µM throughout.

Values taken from PubChem BioAssay (NCI).
